Experimental data published in ChEMBL document CHEMBL1127216, “Diastereoselective synthesis of cyclopropyl phenylalanines and their incorporation into dipeptides” (Bioorg Med Chem Lett, 1993).

Assays:
[1] = molecular target: T1, Gastrin/cholecystokinin type B receptor (Mus musculus, UniProt P56481); assay: Compound was tested for the inhibition of specific binding of [125I]bolton Hunter CCK-8 to Cholecystokinin type B receptor in mouse cerebral cortex; format: tissue-based
T1 sequence (P56481 whole entry): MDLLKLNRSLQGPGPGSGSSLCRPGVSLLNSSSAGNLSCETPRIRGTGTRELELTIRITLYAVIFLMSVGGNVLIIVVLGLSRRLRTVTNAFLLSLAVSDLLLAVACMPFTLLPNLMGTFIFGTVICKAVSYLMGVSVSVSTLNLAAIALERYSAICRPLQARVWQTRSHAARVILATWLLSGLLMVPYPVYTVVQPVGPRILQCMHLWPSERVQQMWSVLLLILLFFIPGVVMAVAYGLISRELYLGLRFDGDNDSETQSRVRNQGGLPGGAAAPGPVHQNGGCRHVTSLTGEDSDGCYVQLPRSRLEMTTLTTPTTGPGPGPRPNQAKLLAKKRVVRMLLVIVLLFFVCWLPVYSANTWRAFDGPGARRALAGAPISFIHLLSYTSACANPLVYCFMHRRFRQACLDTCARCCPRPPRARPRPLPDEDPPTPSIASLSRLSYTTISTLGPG

[2] = molecular target: T2, Cholecystokinin receptor type A (Rattus norvegicus, UniProt P30551); assay: Compound was tested for the inhibition of specific binding of [125I]bolton Hunter CCK-8 to Cholecystokinin type A receptor in the rat pancreas
T2 sequence (P30551 whole entry): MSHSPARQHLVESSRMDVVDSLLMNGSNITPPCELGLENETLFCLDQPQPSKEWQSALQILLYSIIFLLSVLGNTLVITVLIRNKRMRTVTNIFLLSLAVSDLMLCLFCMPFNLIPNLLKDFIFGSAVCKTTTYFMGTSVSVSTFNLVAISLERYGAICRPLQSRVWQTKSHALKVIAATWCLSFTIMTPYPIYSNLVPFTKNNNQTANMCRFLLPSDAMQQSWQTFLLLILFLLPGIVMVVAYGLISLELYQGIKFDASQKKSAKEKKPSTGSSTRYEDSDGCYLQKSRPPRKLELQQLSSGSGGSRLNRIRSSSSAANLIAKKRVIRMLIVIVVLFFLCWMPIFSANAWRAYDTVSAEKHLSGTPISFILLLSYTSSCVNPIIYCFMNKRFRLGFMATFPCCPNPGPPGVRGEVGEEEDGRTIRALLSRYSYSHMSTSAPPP

IC50 [1] [nM] | IC50 [2] [nM] | Compound
140 | 84 | C[C@](Cc1c[nH]c2ccccc12)(NC(=O)OC1C2CC3CC(C2)CC1C3)C(=O)N[C@@]1(C(=O)O)C[C@H]1c1ccccc1 (some centres undefined)
54 | 60 | C[C@](Cc1c[nH]c2ccccc12)(NC(=O)OC1C2CC3CC(C2)CC1C3)C(=O)N/C(=C\c1ccccc1)C(=O)O (some centres undefined)
270 | – | COC(=O)/C(=C/c1ccccc1)NC(=O)[C@@](C)(Cc1c[nH]c2ccccc12)NC(=O)OC1C2CC3CC(C2)CC1C3 (some centres undefined)
600 | 720 | COC(=O)[C@]1(NC(=O)[C@@](C)(Cc2c[nH]c3ccccc23)NC(=O)OC2C3CC4CC(C3)CC2C4)C[C@H]1c1ccccc1 (some centres undefined)
3.9 | 26 | COC(=O)[C@@]1(NC(=O)[C@@](C)(Cc2c[nH]c3ccccc23)NC(=O)OC2C3CC4CC(C3)CC2C4)C[C@H]1c1ccccc1 (some centres undefined)
